Test results reported in patent US8835644B2, “Broad spectrum benzothiophene-nitrothiazolide and other antimicrobials” (University of Virginia Patent Foundation, priority 2009, dated 2014).
≈ marks a conversion by molar mass, not a printed value. Structures can show the parent of a compound that is named as a salt. Where two headings read alike, the source gives them in different places.

Experiments:
E. coli biofilm = E. coli biofilm assay (activity tables); type: cell-based, Escherichia coli
Protocol: A quantitative biofilm assay was used to determine the effect of NTZ on biofilm formation (41). Strain 042 was grown overnight at 37° C. with shaking and inoculated 1:100 in 200 μl culture medium in Costar 96-well, flat-bottom, polystyrene microtiter plates containing appropriate concentrations of NTZ. Plates were incubated statically at 37° C. in a humidified incubator. At 24 h, bacterial growth was measured by either transferring […] aliquots to another microtiter plate to determine turbidity or by diluting 100 μl aliquots 1:100 in 9.9 ml PBS for quantitative plate counts on LB medium. Bacterial counts in triplicate are reported as cfu/ml. Biofilm was visualized following staining with 0.5% crystal violet (41) and the absorbance was read at 570 nm using a microplate reader (Molecular Dynamics). All experiments were in triplicate and reported as mean and standard deviation.
A standard broth dilution protocol was used in 96 well microplates containing a standard dilution of the microorganism to be tested in 100 microliters of the appropriate medium. Appropriate medium: E. coli, LB medium; Staphylococcus strains, Trypticase Soy; and for H. pylori and C. jejuni, Brain Heart Infusion. The compounds to be tested were set at 32 μg/ml in 200 microliters in well one and then serially diluted to provide a range from 32 to 0.06. The wells were scored visually at 24 h. The well where there was no growth was recorded as the MIC. Clostridium difficile was tested by agar diffusion and disk diffusion (Kirby Bower) methods under anaerobic conditions on Wilkins Chalgrin agar. In these assays, zone of inhibited growth was measured and compared by relative ratio to the zone recorded for NTZ.
(§1) Representative compounds of the invention were tested in a series of assays against a series of organisms as described above. […] The organisms tested include, C. difficile, H. pylori, C. jejuni, MRSA, S. epidermidis, and E. coli. S. epidermidis and E. coli were tested in the plank and biofilm assay. A disk diffusion assay was also used for C. difficile. Direct PFOR enzyme assays were also performed. All analogues and derivatives were not tested on every organism in every type of assay (the “-” in each table means that it was not tested).

E. coli = assay: MIC testing by broth dilution, E. coli plank; type: cell-based, Escherichia coli
Procedure, shortened: (§2)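 Planktonic E. coli (LB) and S. epidermidis (Trypticase Soy), plus C. jejuni (Brain Heart Infusion), were exposed to a dilution series starting at 32 μg/ml. The C. difficile values are anaerobic zone ratios against NTZ.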

H. pylori = assay: MIC testing by broth dilution, H. pylori; type: cell-based, Helicobacter pylori
Procedure, shortened: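 Helicobacter pylori was tested using a standard broth dilution method in 96 well microplates, each well holding a standard dilution of the organism in 100 microliters of Brain Heart Infusion. Compounds started at 32 μg/ml in 200 microliters in the first well and were serially diluted from 32 to 0.06. Wells were read visually at 24 h, and the MIC was the well with no growth.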

C. jejuni = assay: MIC testing by broth dilution, C. jejuni; type: cell-based, Campylobacter jejuni
Procedure, shortened: as §2

S. epidermidis = assay: MIC testing by broth dilution, S. epidermidis plank; type: cell-based, Staphylococcus epidermidis
Procedure, shortened: as §2

S. epidermidis biofilm = S. epidermidis biofilm assay (activity tables); type: cell-based, Staphylococcus epidermidis; details: for MIC S. epidermidis Biofilm: Furan analogues table
Protocol: Staphylococcal strains were cultured overnight in TSB at 37° C. with shaking, diluted in fresh medium to an OD600 of 0.01 and 200 W was dispensed into sterile flat bottom polystyrene 96 well microtiter plates (Costar 3596, Corning Inc.). […] Each compound and dilution was tested in triplicate. The plates were incubated overnight at 37° C. in a humidified incubator, without shaking and both growth and biofilm accumulation were determined at 16 h.
Following recording of turbidities, the culture medium was aspirated and the wells were washed three times with distilled water, blotted on paper towels, and fixed with 75% ethanol for 10 minutes.
To visualize biofilm material, 0.5% crystal violet was added to each well and after 5 minutes was removed and the wells washed three times with distilled water. Plates were read using a microplate reader at a wavelength of 570 nm. The dye was then extracted by adding 200 W of 95% ethanol, and the absorbance was read again at 570 nm. All assays were performed in triplicate and the mean and standard deviation determined. […]
as §1

MRSA = assay: MIC testing by broth dilution, MRSA; type: cell-based, Staphylococcus aureus
Procedure, shortened: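 Values are broth-dilution MICs, defined as the well showing no growth on visual reading after 24 h; the tested range was 32 to 0.06 μg/ml, in organism-specific media (LB, Trypticase Soy, Brain Heart Infusion). The C. difficile entries come instead from anaerobic Kirby-Bauer disk zones, normalised to NTZ.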

[1] = biofilm, read-out: MIC (μM) E. coli Biofilm
[2] = broth dilution, LB medium, 24 h, read-out: MIC (μM) E. coli Plank
[3] = broth dilution, Brain Heart Infusion, 24 h, read-out: MIC (μM) H. pylori
[4] = broth dilution, Brain Heart Infusion, 24 h, read-out: MIC (μM) C. jejuni
[5] = broth dilution, Trypticase Soy, 24 h, read-out: MIC (μM) S. epidermidis Plank
[6] = broth dilution, Trypticase Soy, 24 h, read-out: MIC (μM) MRSA
[7] = biofilm, Furan analogues table, read-out: MIC E. coli Biofilm
[8] = planktonic, Furan analogues table, read-out: MIC E. coli Plank
[9] = Furan analogues table, read-out: MIC H. pylori
[10] = Furan analogues table, read-out: MIC C. jejuni
[11] = planktonic, Furan analogues table, read-out: MIC S. epidermidis Plank
[12] = Furan analogues table, read-out: MIC MRSA

Structure (SMILES)	MIC (E. coli biofilm; Escherichia coli, read-out: MIC (μM) E. coli Biofilm) [µM]	MIC (E. coli; Escherichia coli, 24 h, read-out: MIC (μM) E. coli Plank) [µM]	MIC (H. pylori; Helicobacter pylori, 24 h, read-out: MIC (μM) H. pylori) [µM]	MIC (C. jejuni; Campylobacter jejuni, 24 h, read-out: MIC (μM) C. jejuni) [µM]	MIC (S. epidermidis; Staphylococcus epidermidis, 24 h, read-out: MIC (μM) S. epidermidis Plank) [µM]	MIC (μM) S. epidermidis Biofilm (S. epidermidis biofilm) [µM]	MIC (MRSA; Staphylococcus aureus, MRSA, 24 h, read-out: MIC (μM) MRSA) [µM]	MIC (E. coli biofilm; [1]) [µM]	MIC (E. coli; [2]) [µM]	MIC (H. pylori; [3]) [µM]	MIC (C. jejuni; [4]) [µM]	MIC (S. epidermidis; [5]) [µM]	MIC (MRSA; [6]) [µM]	MIC (E. coli biofilm; [7]) [µM]	MIC (E. coli; [8]) [µM]	MIC (H. pylori; [9]) [µM]	MIC (C. jejuni; [10]) [µM]	MIC (S. epidermidis; [11]) [µM]	MIC S. epidermidis Biofilm (S. epidermidis biofilm) [µM]	MIC (MRSA; [12]) [µM]
N[C@@H](Cc1ccccc1)C(=O)Nc1ncc([N+](=O)[O-])s1 [VPC16a1028, (S)-2-Amino-N-(5-nitrothiazol-2-yl)-3-phenylpropanamide hydrochloride]	48.7	97.3	18.3	36.5	97.3	97.3	97.3													
NCCCC[C@H](N)C(=O)Nc1ncc([N+](=O)[O-])s1 [VPC16a1032]						92.4 (≈ 25.3 µg/mL)		0.1 (≈ 0.0273 µg/mL)	92.4 (≈ 25.3 µg/mL)	69.3 (≈ 18.9 µg/mL)	92.4 (≈ 25.3 µg/mL)	92.4 (≈ 25.3 µg/mL)	92.4 (≈ 25.3 µg/mL)							
CC(=O)Nc1ncc([N+](=O)[O-])s1 [VPC16a1033]						21.4 (≈ 4.01 µg/mL)		42.7 (≈ 7.99 µg/mL)	42.7 (≈ 7.99 µg/mL)	3.5 (≈ 0.655 µg/mL)	14.0 (≈ 2.62 µg/mL)	21.4 (≈ 4.01 µg/mL)	171.0 (≈ 32 µg/mL)							
CCCCCCCCCC(=O)Nc1ncc([N+](=O)[O-])s1 [VPC16b1043]						1.7 (≈ 0.509 µg/mL)		106.9 (≈ 32 µg/mL)	106.9 (≈ 32 µg/mL)	1.2 (≈ 0.359 µg/mL)	3.9 (≈ 1.17 µg/mL)	106.9 (≈ 32 µg/mL)	106.9 (≈ 32 µg/mL)							
CCCC(=O)Nc1ncc([N+](=O)[O-])s1 [VPC16b1045]						4.6 (≈ 0.99 µg/mL)		148.7 (≈ 32 µg/mL)	148.7 (≈ 32 µg/mL)	0.5 (≈ 0.108 µg/mL)	2.1 (≈ 0.452 µg/mL)	37.2 (≈ 8.01 µg/mL)	148.7 (≈ 32 µg/mL)							
CC(C)(C(=O)Nc1ncc([N+](=O)[O-])s1)C(=O)Nc1ncc([N+](=O)[O-])s1 [VPC16b1048]						41.4 (≈ 16 µg/mL)		82.8 (≈ 32 µg/mL)	82.8 (≈ 32 µg/mL)	20.7 (≈ 8 µg/mL)	82.8 (≈ 32 µg/mL)	82.8 (≈ 32 µg/mL)	82.8 (≈ 32 µg/mL)							
CC(=O)Oc1cc(C#N)ccc1C(=O)Nc1ncc([N+](=O)[O-])s1 [VPC161076]						48.2 (≈ 16 µg/mL)		96.3 (≈ 32 µg/mL)	96.3 (≈ 32 µg/mL)	24.1 (≈ 8.01 µg/mL)	96.3 (≈ 32 µg/mL)	96.3 (≈ 32 µg/mL)	96.3 (≈ 32 µg/mL)							
O=C(Nc1ncc([N+](=O)[O-])s1)c1cccc([N+](=O)[O-])c1O [VPC161090]						6.4 (≈ 1.99 µg/mL)		103.1 (≈ 32 µg/mL)	103.1 (≈ 32 µg/mL)	19.3 (≈ 5.99 µg/mL)	103.1 (≈ 32 µg/mL)	77.4 (≈ 24 µg/mL)	103.1 (≈ 32 µg/mL)							
O=C(Nc1ncc([N+](=O)[O-])s1)c1ccc(F)cc1C(F)(F)F [VPC161127]						13.4 (≈ 4.49 µg/mL)		95.5 (≈ 32 µg/mL)	95.5 (≈ 32 µg/mL)	3.4 (≈ 1.14 µg/mL)	23.9 (≈ 8.01 µg/mL)	23.9 (≈ 8.01 µg/mL)	8.9 (≈ 2.98 µg/mL)							
O=C(Nc1ncc([N+](=O)[O-])s1)c1cccc(F)c1 [VPC161166]						59.9 (≈ 16 µg/mL)		59.9 (≈ 16 µg/mL)	119.7 (≈ 32 µg/mL)	0.9 (≈ 0.241 µg/mL)	11.2 (≈ 2.99 µg/mL)	22.5 (≈ 6.01 µg/mL)	16.8 (≈ 4.49 µg/mL)							
O=C(Nc1ncc([N+](=O)[O-])s1)c1ccc([N+](=O)[O-])cc1 [VPC161170]						3.4 (≈ 1 µg/mL)		108.8 (≈ 32 µg/mL)	81.6 (≈ 24 µg/mL)	1.3 (≈ 0.383 µg/mL)	13.6 (≈ 4 µg/mL)	10.2 (≈ 3 µg/mL)	20.4 (≈ 6 µg/mL)							
COc1ccc(-c2ccc(F)cc2F)cc1C(=O)Nc1ncc([N+](=O)[O-])s1 [VPC161171]						81.8 (≈ 32 µg/mL)		81.8 (≈ 32 µg/mL)	81.8 (≈ 32 µg/mL)	0.8 (≈ 0.313 µg/mL)	40.9 (≈ 16 µg/mL)	81.8 (≈ 32 µg/mL)	81.8 (≈ 32 µg/mL)							
N#Cc1cccc(C(=O)Nc2ncc([N+](=O)[O-])s2)c1 [VPC161173]						58.3 (≈ 16 µg/mL)		116.7 (≈ 32 µg/mL)	116.7 (≈ 32 µg/mL)	4.1 (≈ 1.12 µg/mL)	36.5 (≈ 10 µg/mL)	29.2 (≈ 8.01 µg/mL)	43.8 (≈ 12 µg/mL)							
O=C(Nc1ncc([N+](=O)[O-])s1)c1cccnc1 [VPC161176]						63.9 (≈ 16 µg/mL)		127.9 (≈ 32 µg/mL)	127.9 (≈ 32 µg/mL)	4.0 (≈ 1 µg/mL)	71.9 (≈ 18 µg/mL)	127.9 (≈ 32 µg/mL)	127.9 (≈ 32 µg/mL)							
O=C(Nc1ncc([N+](=O)[O-])s1)c1ccncc1 [VPC161177]						127.9 (≈ 32 µg/mL)		127.9 (≈ 32 µg/mL)	127.9 (≈ 32 µg/mL)	16.0 (≈ 4 µg/mL)	24.0 (≈ 6.01 µg/mL)	127.9 (≈ 32 µg/mL)	127.9 (≈ 32 µg/mL)							
O=C(Nc1ncc([N+](=O)[O-])s1)c1ccccc1C(F)(F)F [VPC161182]						50.4 (≈ 16 µg/mL)		100.9 (≈ 32 µg/mL)	100.9 (≈ 32 µg/mL)	1.6 (≈ 0.508 µg/mL)	18.9 (≈ 6 µg/mL)	25.2 (≈ 7.99 µg/mL)	25.2 (≈ 7.99 µg/mL)							
O=C(Nc1ncc([N+](=O)[O-])s1)c1ccc(-c2ccc([N+](=O)[O-])cc2)o1 [VPC161189]														88.8 (≈ 32 µg/mL)	88.8 (≈ 32 µg/mL)	6.9 (≈ 2.49 µg/mL)	16.7 (≈ 6.02 µg/mL)	11.1 (≈ 4 µg/mL)	11.1 (≈ 4 µg/mL)	88.8 (≈ 32 µg/mL)
O=C(Nc1ncc([N+](=O)[O-])s1)c1ccc(-c2cccc([N+](=O)[O-])c2)o1 [VPC161190]														88.8 (≈ 32 µg/mL)	88.8 (≈ 32 µg/mL)	6.9 (≈ 2.49 µg/mL)	16.7 (≈ 6.02 µg/mL)	11.1 (≈ 4 µg/mL)	11.1 (≈ 4 µg/mL)	44.4 (≈ 16 µg/mL)
COc1ccccc1C(=O)Nc1ncc([N+](=O)[O-])s1 [VPC161192]						114.6 (≈ 32 µg/mL)		57.3 (≈ 16 µg/mL)	114.6 (≈ 32 µg/mL)	1.8 (≈ 0.503 µg/mL)	17.9 (≈ 5 µg/mL)	114.6 (≈ 32 µg/mL)	114.6 (≈ 32 µg/mL)							
O=C(Nc1ncc([N+](=O)[O-])s1)c1ccc(-c2cccc(C(F)(F)F)c2)o1 [VPC161197]														90.8 (≈ 34.8 µg/mL)	90.8 (≈ 34.8 µg/mL)	1.1 (≈ 0.422 µg/mL)	8.5 (≈ 3.26 µg/mL)	5.7 (≈ 2.18 µg/mL)	5.7 (≈ 2.18 µg/mL)	11.4 (≈ 4.37 µg/mL)
